Experimental data from patent US20110130397A1, “PYRROLINONE COMPOUNDS AS INHIBITORS OF BACTERIAL PEPTIDYL TRNA HYDROLASE AND USES THEREOF” (priority 2006, published 2011).

SMILES	melting point [°C]
O=C(O)CCC(=O)C1=C(O)C(=O)N(c2nc3ccc(Cl)cc3s2)C1c1ccccc1F (stereo not drawn) [Compound 568]	258 to 260
CCOc1ccc2nc(N3C(=O)C(O)=C(C(=O)c4ccc(C)o4)C3c3cccc(C(=O)OC)c3)sc2c1 (stereo not drawn) [Compound 255]	228 to 229
O=C(C1=C(O)C(=O)N(c2nc3ccc(F)cc3s2)C1c1ccccc1F)c1nccs1 (stereo not drawn) [Compound 437]	298 to 299
Cc1ccc(C(=O)C2=C(O)C(=O)N(c3nc4ccc(Cl)cc4s3)C2c2ccc3c(c2)OCCO3)o1 (stereo not drawn) [Compound 596]	236 to 237
O=C(C1=C(O)C(=O)N(c2nc3c(Cl)cccc3s2)C1c1ccc(F)cc1)c1nccs1 (stereo not drawn) [Compound 440]	303 to 304
Cc1ccc(C(=O)C2=C(O)C(=O)N(c3nc4ccc(Cl)cc4s3)C2c2cccc(Oc3ccccc3)c2)o1 (stereo not drawn) [Compound 473]	226 to 227
Cc1ccc(C(=O)C2=C(O)C(=O)N(c3nc4ccc(Cl)cc4s3)C2c2ccc(C)o2)o1 (stereo not drawn) [Compound 608]	235 to 236
O=C(C1=C(O)C(=O)N(c2nc3ccc(Cl)cc3s2)C1c1ccc(F)cc1)c1nccs1 (stereo not drawn) [Compound 436]	310 to 311
COC(=O)c1cccc(C2C(C(=O)c3ccc(C)o3)=C(O)C(=O)N2c2nc3ccc(OC)cc3s2)c1 (stereo not drawn) [Compound 154]	250 to 252
O=C(C1=C(O)C(=O)N(c2nc3ccc(F)cc3s2)C1c1ccccc1F)C1CC1 (stereo not drawn) [Compound 454]	234 to 235
Cc1ccc(C(=O)C2=C(O)C(=O)N(c3nc4ccc(F)cc4s3)C2c2ccc3c(c2)OCCO3)o1 (stereo not drawn) [Compound 597]	236 to 237
Cc1ccc(C(=O)C2=C(O)C(=O)N(c3nc(N4CCOCC4)c4nc[nH]c4n3)C2c2ccccc2F)o1 (stereo not drawn) [Compound 285]	297 to 299
CCOC(=O)CCC(=O)C1=C(O)C(=O)N(c2nc3ccc(Cl)cc3s2)C1c1ccccc1F (stereo not drawn) [Compound 493]	206 to 207
CCc1ccc2nc(N3C(=O)C(O)=C(C(=O)c4ccc(C)o4)C3c3ccc(F)cc3)sc2c1 (stereo not drawn) [Compound 131]	222 to 225
COc1cc(C2C(C(=O)c3ccc(C)o3)=C(O)C(=O)N2c2nc3ccc(Cl)cc3s2)cc(OC)c1OC (stereo not drawn) [Compound 605]	229 to 230
O=C(C1=C(O)C(=O)N(c2nc3c(Cl)cccc3s2)C1c1ccc(F)cc1)C1CC2C=CC1C2 (stereo not drawn) [Compound 570]	216 to 218
CCOC1=C(C(=O)c2ccc(C)o2)C(c2ccc(O)cc2)N(c2nc3ccccc3n2C)C1=O (stereo not drawn) [Compound 431]	254 to 255
Cc1ccc(C(=O)C2=C(O)C(=O)N(Cc3nn[nH]n3)C2)o1 [Compound 178]	233 to 234
COC(=O)c1cccc(C2C(C(=O)c3ccc(C)o3)=C(O)C(=O)N2c2nc3cccnc3s2)c1 (stereo not drawn) [Compound 249]	220 to 221
Cc1ccc(C(=O)C2=C(O)C(=O)N(c3nc4c(Cl)cccc4s3)C2c2ccc(-c3ccccc3)cc2)o1 (stereo not drawn) [Compound 466]	222 to 223
Cc1ccc(C(=O)C2=C(O)C(=O)N(c3nc4cccnc4s3)C2c2ccccc2F)o1 (stereo not drawn) [Compound 245]	227 to 229
Cc1ccc(C(=O)C2=C(O)C(=O)N(CCc3c[nH]c4ccccc34)C2c2ccc(Cl)cc2)o1 (stereo not drawn) [Compound 595]	165 to 166
O=C(C1=C(O)C(=O)N(c2nc3ccc(F)cc3s2)C1c1ccc(F)cc1)C1CC1 (stereo not drawn) [Compound 455]	221 to 223
Cc1ccc(C(=O)C2=C(O)C(=O)N(c3ncnc4[nH]ncc34)C2c2cccc([N+](=O)[O-])c2)o1 (stereo not drawn) [Compound 225]	222 to 223
CC(=O)c1sc(N2C(=O)C(O)=C(C(=O)c3ccc(C)o3)C2c2ccccc2F)nc1C (stereo not drawn) [Compound 159]	244 to 245
CCOc1ccc2nc(N3C(=O)C(O)=C(C(=O)c4ccc(C)o4)C3c3ccccc3)sc2c1 (stereo not drawn) [Compound 182]	247 to 248
Cc1ccc(C(=O)C2=C(O)C(=O)N(c3nc4ccc(F)cc4s3)C2c2ccc(OCc3ccccc3)cc2)o1 (stereo not drawn) [Compound 471]	191 to 193
